A short description of this data set: Aerosol performances by Next Generation Impactor (NGI). It is filed as physicochemical. As to the method: The evaluation of the aerosol performances was carried out using the Next Generation Impactor (NGI) according to the conditions reported in the European Pharmacopeia 8.5th Ed 2015, par 2.9.18, pages 309-320. After aerosolization of 3 doses from the inhaler device, the NGI apparatus was disassembled and the amounts of drug deposited in the stages were recovered by washing with a 50:50 v/v water:acetonitrile mixture and then quantified by High-Performance Liquid Chromatography (HPLC). The following parameters, were calculated: i) the delivered dose which is the amount of drug delivered from the device recovered in the all parts of impactor; ii) the fine particle mass (FPM) which is the amount of delivered dose having a particle size equal to or lower than 5.0 micron; iii) the fine particle fraction (FPF) which is the ratio between the fine particle mass and the delivered dose; iv) the MMAD. The evaluation of the aerosol performances was performed as reported in Example 1. […]

The mark [1] stands for this setting: Example 4 formulation, Multidose DPI.
Where [2] appears, read: Example 4 formulation, Single Dose DPI (RS01).
Setting [3] is: Example 5 formulation, 1 mg single dose, single dose DPI RS01.
The mark [4] stands for this setting: Example 5 formulation, 4 mg single dose, single dose DPI RS01.

Each structure is given as a SMILES string.

For the molecule `COC(=O)C1=C(C)N(c2cccc(C(F)(F)F)c2)c2n[nH]c(=O)n2[C@@H]1c1ccc(C#N)cc1CC[N+](C)(C)C` [CHF 6333], the “Fine Particle Fraction” value reads like this: under setting [1], 41.7%; under setting [2], 77.1%; under setting [3], 71.6%; under setting [4], 73.9%. Moreover, the Fine Particle Mass was found to be 0.8 mg under setting [1], 1.18 mg under setting [2], 0.58 mg under setting [3] and 2.13 mg under setting [4]. Besides, the MMAD turned out to be 2.09 μm under setting [1], 1.88 μm under setting [2], 2.15 μm under setting [3] and 1.85 μm under setting [4]. The Delivered Dose is, setting by setting: (Example 4 formulation, Multidose DPI (WO 2016/000983)) 1.92 mg; (Example 4 formulation, Single Dose DPI (RS01 of Plastiape)) 1.53 mg; under setting [3], 0.81 mg; under setting [4], 2.88 mg.

The molecule `CCC(=O)OCC(=O)[C@@]1(OC(=O)CC)[C@@H](C)C[C@H]2[C@@H]3CCC4=CC(=O)C=C[C@]4(C)[C@@]3(Cl)[C@@H](O)C[C@@]21C` [BDP, beclometasone dipropionate, reference compound] gave a Delivered Dose (Example 1 formulation (3000 μg BDP per 10 mg shot), multidose DPI of WO 2016/000983, NGI, 3 doses) of 2.16 mg. Besides, the MMAD (Example 1 formulation, multidose DPI) came out at 2.26 μm. Besides, the Fine Particle Mass (Example 1 formulation, multidose DPI, particle size equal to or lower than 5.0 micron) is 0.87 mg. Moreover, the “Fine Particle Fraction” value (Example 1 formulation, multidose DPI, ratio fine particle mass/delivered dose) worked out at 38.5%.
